What follows are molecules tested on HCV replicon RNA replication in human Huh7 hepatoma cells (assay: HCV replicon assay (activity levels from either or both of HCV replicon assay 1, Huh7/Clone A RT-qPCR, and assay 2, Huh7 ET luc-ubi-neo/ET)). Conditions: Hepatitis C virus, Huh-7, either or both HCV replicon assays: Huh7/Clone A, 48 hours, 72 hours, Luc activity or RT-PCR, read-out: inhibit HCV replication at IC50 levels or estimated IC50 levels.
Assay type: cell-based, Hepatitis C virus (HCV)
From the text: The HCV replicon assay is a cell-culture system that mimics in vivo HCV replication and provides a system to study HCV replication in vitro. It was created by transfecting cloned viral RNA derived from a consensus HCV genomic sequence into human Huh7 hepatoma cells that are semi-permissive for viral RNA production (Lohmann V., Korner F., Koch J.-O., Herian U., Theilmann L. and Bartenschlager R. (1999). Replication of subgenomic Hepatitis C virus RNAs in a hepatoma cell line. Science 285, 110-113 and Blight K. J., Kolykhalov A. A. and Rice C. M. (2000). Efficient initiation of HCV RNA Replication in cell culture. Science 290, […]). These transfected cell lines contain a subgenomic HCV RNA genome that includes (1) the HCV 5′NTR fused to 12 amino acids of the capsid coding region, (2) the neomycin phosphotransferase gene (Neo) as a selectable marker, (3) the internal ribosome entry site (IRES) from encephalomyocarditis virus (EMCV) that directs translation of HCV non-structural proteins (variously NS2 or NS3 to NS5B), and (4) the 3′ NTR. Replicon-containing cells autonomously and persistently replicate HCV RNA that can be measured quantitatively by real-time qPCR. Therefore, the replicon system facilitates quantitative assessment of anti-viral activity by monitoring changes in HCV RNA replication in a cell-based assay.
HCV replicon-containing cells (Huh7/Clone A) were routinely maintained in Clone A growth medium (DMEM medium [Invitrogen], supplemented with 10% Fetal Bovine Serum, 1% Non Essential Amino Acids and 1 g/L G418). Test compounds were dissolved in dimethyl sulfoxide (DMSO) to make 200× stock solutions for all doses prior to treatment.
For the HCV replicon assay, Huh7/Clone A cells were trypsinized from culture flasks, seeded in 1 ml of Clone A growth medium without G418 at 4×10^4 cells per well in 24-well plates and incubated at 37° C. in a humidified CO2 (5%) incubator overnight. Following overnight incubation, compound solutions were added into wells in the same volume (5 μl of 200× compound stock per well) to give a final DMSO concentration of 0.5%. Three wells on each plate supplemented with 5 μl of DMSO served as untreated controls. For IC50 determinations, compounds were tested at 7 serial dilutions in triplicates from the starting stock solutions. The plates were incubated at 37° C. for 48 hours. After incubation, cells were harvested, transferred to 96-well plates, and subjected to total RNA extraction using the RNA Isolation Kit (RNeasy 96, Qiagen) according to the protocol described by the manufacture's RNeasy 96 Handbook (Qiagen).
Total RNA eluted in 130 μl of RNase-free dH2O was quantitated by the RiboGreen Assay according to the supplier's protocol (Molecular Probe). Briefly, 5 μl of RNA samples were aliquoted in duplicate to a 96-well black microplate and a 96-well TaqMan Optical plate. RNA samples in the black microplate were mixed with 95 μl of diluted RiboGreen:reagent (1:250 dilution in TE buffer) and sample fluorescence was measured using a fluorescence microplate reader at standard fluorescein wavelengths (excitation ˜480 nm, emission ˜520 nm). Ribosomal RNA (Molecular Probe) was used as standard.
TaqMan quantitative PCR (RT-qPCR) was used to quantitate the amount of HCV replicon RNA in each sample. The RT-qPCR reactions were performed in 25 μl on an ABI PRISM 7900 HT Sequence Detection System (Applied Biosystems). The reaction mixture contained 5 μl of total RNA (10-100 ng), 1× TaqMan Buffer A (Applied Biosystems), 5.5 mM MgCl2, 1.2 mM dNTP mix, 0.625 U of AmpliTaq Gold (Applied Biosystems), 5 U of MMLV reverse transcriptase (Promega), 5 U of rRNasin (Promega), 300 nM each of the forward and reverse primers, and 100 nM TaqMan MGB probe. Primers and probe were designed to hybridize to a portion of the neomycin resistance gene (neo) in the replicon and the sequences are as follows: forward primer 5′-GGCTACCTGCCCATTCGA-3′; reverse primer 5′-CCGGCTTCCATCCGAGTAC-3′; MGB probe 5′-CCACCAAGCGAAACA-3′. […]
Work on `COc1cc2c(=O)c(-c3noc(Cc4ccccc4)n3)cn(Cc3ccc(Cl)cc3)c2cc1OC` [Compound 1, 3-(5-Benzyl-[1,2,4]oxadiazol-3-yl)-1-(4-chloro-benzyl)-6,7-dimethoxy-1H-quinolin-4-one] yielded an IC50 of over 10 µM.
`COc1cc2c(=O)c(-c3noc(C4(c5ccccc5)CC4)n3)cn(Cc3ccc(Cl)cc3)c2cc1OC` [Compound 2, 1-(4-chloro-benzyl)-6,7-dimethoxy-3-[5-(1-phenyl-cyclopropyl)-[1,2,4]oxadiazol-3-yl]-1H-quinolin-4-one] was tested, and the IC50 was over 10 µM.
`COc1cc2c(=O)c(-c3noc(Cc4ccccn4)n3)cn(Cc3ccc(Cl)cc3)c2cc1OC` [Compound 3, 1-(4-chloro-benzyl)-6,7-dimethoxy-3-(5-pyridin-2-ylmethyl-[1,2,4]oxadiazol-3-yl)-1H-quinolin-4-one] was tested, and the IC50 was over 10 µM.
`COc1cc2c(=O)c(-c3noc(Cc4ccc(C)cc4)n3)cn(Cc3ccc(Cl)cc3)c2cc1OC` [Compound 4, 1-(4-chloro-benzyl)-6,7-dimethoxy-3-[5-(4-methyl-benzyl)-[1,2,4]oxadiazol-3-yl]-1H-quinolin-4-one] was tested, and the IC50 was over 10 µM.
`COc1cc2c(=O)c(-c3noc(CC4CCCCC4)n3)cn(Cc3ccc(Cl)cc3)c2cc1OC` [Compound 5, 1-(4-chloro-benzyl)-3-(5-cyclohexylmethyl-[1,2,4]oxadiazol-3-yl)-6,7-dimethoxy-1H-quinolin-4-one] showed an IC50 of over 10 µM.
`COc1cc2c(=O)c(-c3noc(Cc4ccsc4)n3)cn(Cc3ccc(Cl)cc3)c2cc1OC` [Compound 6, 1-(4-chloro-benzyl)-6,7-dimethoxy-3-(5-thiophen-3-ylmethyl-[1,2,4]oxadiazol-3-yl)-1H-quinolin-4-one] was tested, and the IC50 was under 10 µM.
`COc1cc2c(=O)c(-c3noc(CC4CCCC4)n3)cn(Cc3ccc(Cl)cc3)c2cc1OC` [Compound 7, 1-(4-chloro-benzyl)-3-(5-cyclopentylmethyl-[1,2,4]oxadiazol-3-yl)-6,7-dimethoxy-1H-quinolin-4-one] showed an IC50 of over 10 µM.
For `CN1CCN(c2cc3c(cc2F)c(=O)c(-c2noc(Cc4ccccc4)n2)cn3Cc2ccc(Cl)cc2)CC1` [Compound 8, 3-(5-benzyl-[1,2,4]oxadiazol-3-yl)-1-(4-chloro-benzyl)-6-fluoro-7-(4-methyl-piperazin-1-yl)-1H-quinolin-4-one], the IC50 was under 2 µM.
Molecule `CN1CCN(c2cc3c(cc2F)c(=O)c(-c2noc(Cc4ccccc4)n2)cn3CC2CCCCC2)CC1` [Compound 9, 3-(5-benzyl-[1,2,4]oxadiazol-3-yl)-1-cyclohexylmethyl-6-fluoro-7-(4-methyl-piperazin-1-yl)-1H-quinolin-4-one] has an IC50 of under 2 µM.
For `COc1ccc2c(c1)c(=O)c(-c1noc(Cc3ccccc3)n1)cn2CC1CCCCC1` [Compound 10, 3-(5-benzyl-[1,2,4]oxadiazol-3-yl)-1-cyclohexylmethyl-6-methoxy-1H-quinolin-4-one], the IC50 was over 10 µM.
Molecule `COc1ccc2c(c1)c(=O)c(-c1noc(Cc3ccccc3)n1)cn2Cc1ccc(Cl)cc1` [Compound 11, 3-(5-benzyl-[1,2,4]oxadiazol-3-yl)-1-(4-chloro-benzyl)-6-methoxy-1H-quinolin-4-one] has an IC50 of over 10 µM.
In the case of `O=c1c(-c2noc(Cc3ccccc3)n2)cn(Cc2ccc(Cl)cc2)c2ccc(O)cc12` [Compound 12, 3-(5-benzyl-[1,2,4]oxadiazol-3-yl)-1-(4-chloro-benzyl)-6-hydroxy-1H-quinolin-4-one], the IC50 is reported as under 10 µM.
`CC(C)Cc1nc(-c2cn(CC3CCCCC3)c3cc(N4CCN(C)CC4)c(F)cc3c2=O)no1` [Compound 13, 1-cyclohexylmethyl-6-fluoro-3-(5-isobutyl-[1,2,4]oxadiazol-3-yl)-7-(4-methyl-piperazin-1-yl)-1H-quinolin-4-one] gave an IC50 of over 10 µM.
Work on `CN1CCN(c2cc3c(cc2F)c(=O)c(-c2noc(CC4CC4)n2)cn3CC2CCCCC2)CC1` [Compound 14, 1-cyclohexylmethyl-3-(5-cyclopropylmethyl-[1,2,4]oxadiazol-3-yl)-6-fluoro-7-(4-methyl-piperazin-1-yl)-1H-quinolin-4-one] yielded an IC50 of under 10 µM.
Work on `CN1CCN(c2cc3c(cc2F)c(=O)c(-c2noc(CC4CCCC4)n2)cn3CC2CCCCC2)CC1` [Compound 15, 1-cyclohexylmethyl-3-(5-cyclopentylmethyl-[1,2,4]oxadiazol-3-yl)-6-fluoro-7-(4-methyl-piperazin-1-yl)-1H-quinolin-4-one] yielded an IC50 of under 10 µM.
`CN1CCN(c2cc3c(cc2F)c(=O)c(-c2noc(CC4CCCC4)n2)cn3Cc2ccc(C(F)(F)F)cc2F)CC1` [Compound 17, 3-(5-cyclopentylmethyl-[1,2,4]oxadiazol-3-yl)-6-fluoro-1-(2-fluoro-4-trifluoromethyl-benzyl)-7-(4-methyl-piperazin-1-yl)-1H-quinolin-4-one] gave an IC50 of under 2 µM.
Work on `Cc1cccc(Cc2nc(-c3cn(CC4CCCCC4)c4cc(N5CCN(C)CC5)c(F)cc4c3=O)no2)c1` [Compound 19, 1-cyclohexylmethyl-6-fluoro-3-[5-(3-methyl-benzyl)-[1,2,4]oxadiazol-3-yl]-7-(4-methyl-piperazin-1-yl)-1H-quinolin-4-one] yielded an IC50 of under 10 µM.
`Cc1ccccc1Cc1nc(-c2cn(CC3CCCCC3)c3cc(N4CCN(C)CC4)c(F)cc3c2=O)no1` [Compound 20, 1-cyclohexylmethyl-6-fluoro-3-[5-(2-methyl-benzyl)-[1,2,4]oxadiazol-3-yl]-7-(4-methyl-piperazin-1-yl)-1H-quinolin-4-one] gave an IC50 of under 10 µM.
In the case of `CN1CCN(c2cc3c(cc2F)c(=O)c(-c2noc(CC(C)(C)C)n2)cn3Cc2ccc(Cl)cc2)CC1` [Compound 21, 1-(4-chloro-benzyl)-3-[5-(2,2-dimethyl-propyl)-[1,2,4]oxadiazol-3-yl]-6-fluoro-7-(4-methyl-piperazin-1-yl)-1H-quinolin-4-one], the IC50 is reported as over 10 µM.
In the case of `CN1CCN(c2cc3c(cc2F)c(=O)c(-c2noc(Cc4ccccc4CC(=O)O)n2)cn3Cc2ccc(Cl)cc2)CC1` [Compound 22, (2-{3-[1-(4-chloro-benzyl)-6-fluoro-7-(4-methyl-piperazin-1-yl)-4-oxo-1,4-dihydro-quinolin-3-yl]-[1,2,4]oxadiazol-5-ylmethyl}-phenyl)-acetic acid], the IC50 is reported as over 10 µM.
Molecule `CN1CCN(c2cc3c(cc2F)c(=O)c(-c2noc(Cc4ccc(F)cc4)n2)cn3Cc2ccc(C(F)(F)F)cc2F)CC1` [Compound 23, 6-fluoro-3-[5-(4-fluoro-benzyl)-[1,2,4]oxadiazol-3-yl]-1-(2-fluoro-4-trifluoromethyl-benzyl)-7-(4-methyl-piperazin-1-yl)-1H-quinolin-4-one] has an IC50 of under 2 µM.
Molecule `O=c1c(-c2noc(Cc3ccccc3)n2)cn(CC2CCCCC2)c2ccc(O)cc12` [Compound 24, 3-(5-benzyl-[1,2,4]oxadiazol-3-yl)-1-cyclohexylmethyl-6-hydroxy-1H-quinolin-4-one] has an IC50 of over 10 µM.

Same assay, conditions: either or both HCV replicon assays: Huh7/Clone A, 48 hours, 72 hours, Luc activity or RT-PCR, read-out: inhibit HCV replication at IC50 levels or estimated IC50 levels
In the case of `CN1CCN(c2cc3c(cc2F)c(=O)c(-c2noc(Cc4ccccc4)n2)cn3Cc2ccc(C(F)(F)F)cc2F)CC1` [Compound 16, 3-(5-benzyl-[1,2,4]oxadiazol-3-yl)-6-fluoro-1-(2-fluoro-4-trifluoromethyl-benzyl)-7-(4-methyl-piperazin-1-yl)-1H-quinolin-4-one], the IC50 is reported as under 0.5 µM.

From patent US20070287699A1, “ANTIVIRAL AGENTS” (ViroBay, Inc., priority 2006, published 2007)
